This passage reports Activity and Ratio results from ChEMBL document CHEMBL4321854, “Discovery of a First-in-Class Mitogen-Activated Protein Kinase Kinase 1/2 Degrader” (J Med Chem, 2019).

For series [1], the target named is T1, von Hippel-Lindau disease tumor suppressor/Dual specificity mitogen-activated protein kinase kinase 2/Dual specificity mitogen-activated protein kinase kinase 1 (Homo sapiens) (UniProt P36507+Q02750+P40337). Kind of series: Protac activity against VHL/MEK1/2 in human SK-MEL-28 cells harboring with BRAF V600E variant assessed as phosphorylation of MEK at S218/222 residues at 0.3 uM pretreated with proteasome inhibitor, MG-132 for 2 hrs followed by incubation with compound for 10 hrs by Western blot analysis. The series is classed as cell-based. (In general: A western blot detects proteins with antibodies after separation by electrophoresis.)
T1 sequence (P36507 whole entry, looked up): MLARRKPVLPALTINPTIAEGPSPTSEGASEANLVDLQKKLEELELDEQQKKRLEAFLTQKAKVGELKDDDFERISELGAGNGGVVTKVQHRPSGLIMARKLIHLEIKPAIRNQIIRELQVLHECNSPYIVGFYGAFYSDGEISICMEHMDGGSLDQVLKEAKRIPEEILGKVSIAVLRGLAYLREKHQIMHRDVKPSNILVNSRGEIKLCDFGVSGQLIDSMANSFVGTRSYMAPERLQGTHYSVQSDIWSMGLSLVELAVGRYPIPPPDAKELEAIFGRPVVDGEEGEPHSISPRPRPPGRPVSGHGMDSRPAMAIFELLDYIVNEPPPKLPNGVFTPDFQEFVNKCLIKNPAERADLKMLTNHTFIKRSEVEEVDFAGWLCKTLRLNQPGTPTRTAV
T1 sequence (P40337 whole entry, looked up): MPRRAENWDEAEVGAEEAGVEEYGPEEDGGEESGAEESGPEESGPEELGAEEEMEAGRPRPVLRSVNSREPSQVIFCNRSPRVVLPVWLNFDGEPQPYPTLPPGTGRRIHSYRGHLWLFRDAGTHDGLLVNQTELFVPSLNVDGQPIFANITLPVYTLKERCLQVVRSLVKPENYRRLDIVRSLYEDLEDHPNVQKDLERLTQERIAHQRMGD
T1 sequence (Q02750 whole entry, looked up): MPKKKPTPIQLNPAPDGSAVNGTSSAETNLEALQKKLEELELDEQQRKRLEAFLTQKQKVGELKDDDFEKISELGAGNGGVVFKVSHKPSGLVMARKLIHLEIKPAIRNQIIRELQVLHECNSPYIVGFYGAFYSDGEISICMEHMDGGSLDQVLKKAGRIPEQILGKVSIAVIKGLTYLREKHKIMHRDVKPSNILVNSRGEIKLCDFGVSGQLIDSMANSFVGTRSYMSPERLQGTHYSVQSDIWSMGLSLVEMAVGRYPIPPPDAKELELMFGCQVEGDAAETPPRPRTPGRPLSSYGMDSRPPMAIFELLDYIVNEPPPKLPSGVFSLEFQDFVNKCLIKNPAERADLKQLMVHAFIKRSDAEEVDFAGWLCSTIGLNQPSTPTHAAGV

In series [2] the target is T2, von Hippel-Lindau disease tumor suppressor/Dual specificity mitogen-activated protein kinase kinase 2 (Homo sapiens) (UniProt P36507+P40337). Kind of series: Protac activity against VHL/MEK2 in human SK-MEL-28 cells harboring with BRAF V600E variant assessed as degradation of MEK2 by measuring MEK2 protein level at 0.3 uM pretreated with VHL ligand, VH 032 for 2 hrs followed by incubation with compound for 10 hrs by Western blot analysis. The class given is cell-based.
T2 sequence (P36507 whole entry, looked up): as the sequence (P36507 whole entry, looked up) above
T2 sequence (P40337 whole entry, looked up): as the sequence (P40337 whole entry, looked up) above

In series [3] the target is T2, von Hippel-Lindau disease tumor suppressor/Dual specificity mitogen-activated protein kinase kinase 2 (Homo sapiens). Kind of series: Protac activity against VHL/MEK2 in human SK-MEL-28 cells harboring with BRAF V600E variant assessed as degradation of MEK2 at 3 to 5 uM after 24 hrs by Western blot analysis. The class given is cell-based.
Series [4] has the same target. Briefly: Protac activity against VHL/MEK2 in human SK-MEL-28 cells harboring with BRAF V600E variant assessed as degradation of MEK2 by measuring MEK2 protein level at 0.3 uM pretreated with NEDD8-activating enzyme inhibitor, MLN4924 for 2 hrs followed by incubation with compound for 10 hrs by Western blot analysis. The class given is cell-based.
The target of series [5] is T1, von Hippel-Lindau disease tumor suppressor/Dual specificity mitogen-activated protein kinase kinase 2/Dual specificity mitogen-activated protein kinase kinase 1 (Homo sapiens). Kind of series: Protac activity against VHL/MEK1/2 in human HT-29 cells harboring with BRAF V600E variant assessed as reduction in phosphorylation of MEK at S218/222 residues at 0.3 uM incubated for 6 days by Western blot analysis. The class given is cell-based.

For series [6] the target is unchanged. Kind of series: Protac activity against VHL/MEK1/2 in human HT-29 cells harboring with BRAF V600E variant assessed as reduction in phosphorylation of ERK at T202/Y204 residues after 24 hrs by Western blot analysis. The series is classed as cell-based.
Series [7] concerns the target T3, von Hippel-Lindau disease tumor suppressor/Dual specificity mitogen-activated protein kinase kinase 1 (Homo sapiens) (UniProt Q02750+P40337). Kind of series: Protac activity against VHL/MEK1 in human UACC257 cells harboring with BRAF V600E variant assessed as degradation of MEK1 at 3 to 5 uM uM after 24 hrs by Western blot analysis. The series is classed as cell-based.

The target of series [8] is T3, von Hippel-Lindau disease tumor suppressor/Dual specificity mitogen-activated protein kinase kinase 1 (Homo sapiens). Kind of series: Protac activity against VHL/MEK1 in human SK-MEL-28 cells harboring with BRAF V600E variant assessed as degradation of MEK1 by measuring MEK1 protein level at 0.3 uM pretreated with NEDD8-activating enzyme inhibitor, MLN4924 for 2 hrs followed by incubation with compound for 10 hrs by Western blot analysis. The class given is cell-based.

The target in series [9] is T1, von Hippel-Lindau disease tumor suppressor/Dual specificity mitogen-activated protein kinase kinase 2/Dual specificity mitogen-activated protein kinase kinase 1 (Homo sapiens). Kind of series: Protac activity against VHL/MEK1/2 in human HT-29 cells harboring with BRAF V600E variant assessed as phosphorylation of ERK at T202/Y204 residues at 0.3 uM pretreated with proteasome inhibitor, MG-132 for 2 hrs followed by incubation with compound for 10 hrs by Western blot analysis. The series is classed as cell-based.

In series [10] the target is T2, von Hippel-Lindau disease tumor suppressor/Dual specificity mitogen-activated protein kinase kinase 2 (Homo sapiens). Kind of series: Protac activity against VHL/MEK2 in human HT-29 cells harboring with BRAF V600E variant assessed as degradation of MEK2 by measuring MEK2 protein level at 0.3 uM pretreated with MEK1/2 inhibitor, PD0325901 for 2 hrs followed by incubation with compound for 10 hrs by Western blot analysis. The class given is cell-based.

For series [11], the target named is T3, von Hippel-Lindau disease tumor suppressor/Dual specificity mitogen-activated protein kinase kinase 1 (Homo sapiens). Kind of series: Protac activity against VHL/MEK1 in human HT-29 cells harboring with BRAF V600E variant assessed as degradation of MEK1 by measuring reduction in MEK1 protein level at 0.3 uM after 4 hrs by Western blot analysis relative to control. The series is classed as cell-based. Further details: scale not given: the % may be the effect or the level left.

Series [12] addresses T2, von Hippel-Lindau disease tumor suppressor/Dual specificity mitogen-activated protein kinase kinase 2 (Homo sapiens). Briefly: Protac activity against VHL/MEK2 in human SK-MEL-28 cells harboring with BRAF V600E variant assessed as degradation of MEK2 by measuring MEK2 protein level at 0.3 uM pretreated with proteasome inhibitor, MG-132 for 2 hrs followed by incubation with compound for 10 hrs by Western blot analysis. The series is classed as cell-based.

The target of series [13] is T1, von Hippel-Lindau disease tumor suppressor/Dual specificity mitogen-activated protein kinase kinase 2/Dual specificity mitogen-activated protein kinase kinase 1 (Homo sapiens). Kind of series: Protac activity against VHL/MEK1/2 in human HT-29 cells harboring with BRAF V600E variant assessed as reduction in phosphorylation of ERK at T202/Y204 residues at 0.3 uM after 24 to 144 hrs by Western blot analysis. The class given is cell-based.

The target is the same in series [14]. Briefly: Protac activity against VHL/MEK1/2 in human HT-29 cells harboring with BRAF V600E variant assessed as reduction in phosphorylation of ERK at T202/Y204 residues at 0.1 to 0.3 uM by Western blot analysis. The series is classed as cell-based. Particulars: TDE = time-dependent effect.
For series [15] the target is unchanged. Kind of series: Protac activity against VHL/MEK1/2 in human SK-MEL-28 cells harboring with BRAF V600E variant assessed as reduction in phosphorylation of ERK at T202/Y204 residues at 0.1 to 0.3 uM by Western blot analysis. The series is classed as cell-based. The note with it: TDE = time-dependent effect.
Series [16] is described as follows: Ratio of Plasma concentration in Swiss albino mouse at 50 mg/kg, ip measured after 8 hrs to GI50 for antiproliferative activity against human COLO205 cells. The class given is organism-based. Particulars: in vivo.
Series [17] deals with T1, von Hippel-Lindau disease tumor suppressor/Dual specificity mitogen-activated protein kinase kinase 2/Dual specificity mitogen-activated protein kinase kinase 1 (Homo sapiens). Briefly: Protac activity against VHL/MEK1/2 in human HT-29 cells harboring with BRAF V600E variant assessed as reduction in phosphorylation of MEK at S218/222 residues after 24 hrs by Western blot analysis. The series is classed as cell-based.

The target is the same in series [18]. Briefly: Protac activity against VHL/MEK1/2 in human HT-29 cells harboring with BRAF V600E variant assessed as phosphorylation of MEK at S218/222 residues at 0.3 uM pretreated with proteasome inhibitor, MG-132 for 2 hrs followed by incubation with compound for 10 hrs by Western blot analysis. The class given is cell-based.
In series [19] the target is T2, von Hippel-Lindau disease tumor suppressor/Dual specificity mitogen-activated protein kinase kinase 2 (Homo sapiens). Briefly: Protac activity against VHL/MEK2 in human HT-29 cells harboring with BRAF V600E variant assessed as degradation of MEK2 by measuring reduction in MEK2 protein level at 0.1 uM after 10 hrs by LC-MS based Volcano plot analysis. The class given is cell-based.

For series [20], the target named is T1, von Hippel-Lindau disease tumor suppressor/Dual specificity mitogen-activated protein kinase kinase 2/Dual specificity mitogen-activated protein kinase kinase 1 (Homo sapiens). Kind of series: Protac activity against VHL/MEK1/2 in human SK-MEL-28 cells harboring with BRAF V600E variant assessed as phosphorylation of ERK at T202/Y204 residues at 0.3 uM pretreated with proteasome inhibitor, MG-132 for 2 hrs followed by incubation with compound for 10 hrs by Western blot analysis. The series is classed as cell-based.

Series [21] shares this target. Kind of series: Protac activity against VHL/MEK1/2 in human HT-29 cells harboring with BRAF V600E variant assessed as reduction in phosphorylation of MEK at S218/222 residues at 0.1 to 0.3 after >= 2 hrs by Western blot analysis. The series is classed as cell-based.
The target is the same in series [22]. Briefly: Protac activity against VHL/MEK1/2 in human HT-29 cells harboring with BRAF V600E variant assessed as phosphorylation of ERK at T202/Y204 residues at 0.3 uM pretreated with NEDD8-activating enzyme inhibitor, MLN4924 for 2 hrs followed by incubation with compound for 10 hrs by Western blot analysis. The series is classed as cell-based.
The target in series [23] is T3, von Hippel-Lindau disease tumor suppressor/Dual specificity mitogen-activated protein kinase kinase 1 (Homo sapiens). Kind of series: Protac activity against VHL/MEK1 in human SK-MEL-28 cells harboring with BRAF V600E variant assessed as degradation of MEK1 by measuring MEK1 protein level at 0.3 uM pretreated with VHL ligand, VH 032 for 2 hrs followed by incubation with compound for 10 hrs by Western blot analysis. The series is classed as cell-based.

Each structure is given as a SMILES string. Active and inactive are the calls of the source. No cut-off for these calls is given here.

T3 sequence (P40337 whole entry, looked up): as above
T3 sequence (Q02750 whole entry, looked up): as the sequence (Q02750 whole entry, looked up) above

Regarding `Cc1ncsc1-c1ccc([C@H](C)NC(=O)[C@@H]2C[C@@H](O)CN2C(=O)[C@@H](NC(=O)CCCCCCCCCCNCCCONC(=O)c2ccc(F)c(F)c2Nc2ccc(I)cc2F)C(C)(C)C)cc1`, the outcome in series [1], in series [2], in series [4], in series [8], in series [9] and in series [10] was inactive. Moreover, the result in series [12], in series [18], in series [20], in series [22] and in series [23] was inactive. Moreover, the outcome in [3], in [5], in [7], in series [13], in series [19] and in series [21] was Active. For the same compound, the Activity result was “Dose-dependent effect” in [6]; more than 50% in series [11]; “Tde” in series [14]; “Tde” in [15]; “Dose-dependent effect” in [17]. The Ratio in series [16] is 3 to 20.
